Reference: patent US11000033B2, “Ketone or oxime compound, and herbicide” (NISSAN CHEMICAL CORPORATION, priority 2014, dated 2021)

Key:
Format in all cases: in vivo
[1] = test system: Stellaria media; assay: Test Example 4: herbicidal effect by soil treatment (symbol P); details: for P (Stellaria media) herbicidal effect grade: application herbicide amount 320 g/ha
Outline: (§1)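 Seeds were sown in sterilized diluvial soil, covered with about 1.5 cm of soil, and the soil surface was sprayed with a water-diluted emulsion of the compound at a predetermined rate. Plants grew in a greenhouse at 25° C. to 30° C.; effects were scored visually 3 weeks after application.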

[2] = test system: Avena fatua; assay: Test Example 5: herbicidal effect by foliage application, plastic box (symbol I); details: 320 g/ha, 3 weeks after application
Outline: (§2)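 Sowing in sterilized diluvial soil, 14 days' greenhouse growth at 25° C. to 30° C., then uniform small-sprayer foliar application of aqueous emulsion dilution; plants scored three weeks afterwards.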

[3] = test system: Scirpus juncoides; assay: Test Example 2: herbicidal activity, application during weed generation in submerged conditions (symbol B); details: Table 23; application herbicide amount 320 g/ha; grade 0-5 by criteria of Test Example 1
Outline: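 Visual herbicidal ratings, taken three weeks after dosing, reflect post-emergence water-surface application to seedlings at one to two leaves. Conditions: co-sown weeds in alluvial soil flooded to 4 cm, greenhouse held at 25° C. to 30° C.; compound given as water-diluted emulsion at a fixed herbicide amount.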

[4] = test system: Leptochloa chinensis; assay: Test Example 3: herbicidal effect by foliage application, Wagner pot (symbol D); details: application herbicide amount 320 g/ha
Outline: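 Herbicidal activity was rated three weeks after a foliar spray of diluted emulsion concentrate, applied at a predetermined dose to plants grown for 14 days from seed in waterlogged alluvial soil within a 25–30 °C greenhouse.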

[5] = test system: beet; assay: Test Example 4: effect on crop by soil treatment (symbol f); details: for f (beet) effect on crop grade: application herbicide amount 320 g/ha
Outline: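 Greenhouse culture at 25° C. to 30° C. followed sowing of seed in spots on sterilized diluvial soil with a soil cover close to 1.5 cm thick.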

[6] = test system: Abutilon theophrasti; assay: Test Example 5: herbicidal effect by foliage application, plastic box (symbol M); details: 320 g/ha, 3 weeks after application
Outline: as §2

[7] = test system: directly sowed rice plant; assay: Test Example 3: effect on crop by foliage application, Wagner pot (symbol b); details: application herbicide amount 320 g/ha
Outline: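 Steps: fill a 1/10000-are Wagner pot with alluvial soil; add water and mix to submerge at 0.1–0.5 cm depth; sow rice plus Echinochloa crus-galli var. crus-galli, Leptochloa chinensis and Cyperus difformis; grow in a 25–30 °C greenhouse.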

[8] = test system: corn; assay: Test Example 4: effect on crop by soil treatment (symbol c); details: for c (corn) effect on crop grade: application herbicide amount 320 g/ha
Outline: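 The test used sterilized diluvial soil. Seed was set down in spots and overlaid with about 1.5 cm of soil before growth in a greenhouse kept at 25° C. to 30° C.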

[9] = test system: wheat; assay: Test Example 5: effect on crop by foliage application, plastic box (symbol e); details: 320 g/ha, 3 weeks after application
Outline: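 Soil: sterilized diluvial. Container: plastic box, 21 × 13 cm, 7 cm deep. Sowing: spot-like, ~1.5 cm cover. Growth: greenhouse, 25° C. to 30° C.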

[10] = test system: Digitaria ciliaris; assay: Test Example 4: herbicidal effect by soil treatment (symbol F); details: for F (Digitaria ciliaris) herbicidal effect grade: application herbicide amount 320 g/ha
Outline: as §1

[11] = test system: Lolium multiflorum Lam.; assay: Test Example 5: herbicidal effect by foliage application, plastic box (symbol K); details: 320 g/ha, 3 weeks after application
Outline: as §2

[12] = test system: Avena fatua; assay: Test Example 4: herbicidal effect by soil treatment (symbol I); details: for I (Avena fatua) herbicidal effect grade: application herbicide amount 320 g/ha
Outline: as §1

[13] = test system: Abutilon theophrasti; assay: Test Example 4: herbicidal effect by soil treatment (symbol M); details: for M (Abutilon theophrasti) herbicidal effect grade: application herbicide amount 320 g/ha
Outline: as §1

Row | SMILES | P (Stellaria media) herbicidal effect grade [1] | I: Avena fatua, herbicidal effect grade [2] | Herbicidal effect grade, B: Scirpus juncoides [3] | herbicidal effect on D (Leptochloa chinensis), grade 0-5 [4] | f (beet) effect on crop grade [5] | M: Abutilon theophrasti, herbicidal effect grade [6] | effect on crop b (directly sowed rice plant), grade 0-5 [7] | c (corn) effect on crop grade [8] | e: wheat, effect on crop grade [9] | F (Digitaria ciliaris) herbicidal effect grade [10] | K: Lolium multiflorum Lam., herbicidal effect grade [11] | I (Avena fatua) herbicidal effect grade [12] | M (Abutilon theophrasti) herbicidal effect grade [13] | also measured
1 | CCC(CC1CC(O)=C(c2c(C)cc(C)cc2C)C1=O)=NOC (stereo not drawn) [1-038] | 0 (Herbicidal ratio of 5% or lower (almost no effect)) | 5 (Herbicidal ratio of 90% or more (almost completely withered)) | 5 (Herbicidal ratio of 90% or more (almost completely withered)) | 5 (Herbicidal ratio of 90% or more (almost completely withered)) | 0 (Herbicidal ratio of 5% or lower (almost no effect)) | 4 (Herbicidal ratio of 70% or higher and lower than 90%) | 5 (Herbicidal ratio of 90% or more (almost completely withered)) | 3 (Herbicidal ratio of 40% or higher and lower than 70%) | 4 (Herbicidal ratio of 70% or higher and lower than 90%) | 5 (Herbicidal ratio of 90% or more (almost completely withered)) | 5 (Herbicidal ratio of 90% or more (almost completely withered)) | 0 (Herbicidal ratio of 5% or lower (almost no effect)) | 4 (Herbicidal ratio of 70% or higher and lower than 90%) | –
2 | CC(CC1CC(O)=C(c2c(C)cc(C)cc2C)C1=O)=NOCC=CCl (stereo not drawn) [1-056] | 0 (Herbicidal ratio of 5% or lower (almost no effect)) | 5 (Herbicidal ratio of 90% or more (almost completely withered)) | 5 (Herbicidal ratio of 90% or more (almost completely withered)) | 5 (Herbicidal ratio of 90% or more (almost completely withered)) | 0 (Herbicidal ratio of 5% or lower (almost no effect)) | 4 (Herbicidal ratio of 70% or higher and lower than 90%) | 5 (Herbicidal ratio of 90% or more (almost completely withered)) | 3 (Herbicidal ratio of 40% or higher and lower than 70%) | 5 (Herbicidal ratio of 90% or more (almost completely withered)) | 5 (Herbicidal ratio of 90% or more (almost completely withered)) | 5 (Herbicidal ratio of 90% or more (almost completely withered)) | 3 (Herbicidal ratio of 40% or higher and lower than 70%) | 4 (Herbicidal ratio of 70% or higher and lower than 90%) | –
3 | CON=C(CC1CC(O)=C(c2c(C)cc(C)cc2C)C1=O)C1CCCC1 (stereo not drawn) [1-078] | – | – | 0 (Herbicidal ratio of 5% or lower (almost no effect)) | 4 (Herbicidal ratio of 70% or higher and lower than 90%) | – | – | 5 (Herbicidal ratio of 90% or more (almost completely withered)) | – | – | – | – | – | – | P: Stellaria media, herbicidal effect grade ([1]; 320 g/ha): 0 (Herbicidal ratio of 5% or lower (almost no effect)); I: Avena fatua, herbicidal effect (criteria 0-5) [2]: 1 (Herbicidal ratio of 5% or higher and lower than 20%); f: beet, effect grade on crop ([5]; 320 g/ha): 0 (Herbicidal ratio of 5% or lower (almost no effect)); M: Abutilon theophrasti, herbicidal effect (criteria 0-5) [6]: 0 (Herbicidal ratio of 5% or lower (almost no effect)); c: corn, effect grade on crop ([8]; 320 g/ha): 4 (Herbicidal ratio of 70% or higher and lower than 90%); e: wheat, effect on crop (criteria 0-5) [9]: 0 (Herbicidal ratio of 5% or lower (almost no effect)); F: Digitaria ciliaris, herbicidal effect grade ([10]; 320 g/ha): 5 (Herbicidal ratio of 90% or more (almost completely withered)); K: Lolium multiflorum Lam., herbicidal effect (criteria 0-5) [11]: 5 (Herbicidal ratio of 90% or more (almost completely withered)); I: Avena fatua, herbicidal effect grade ([12]; 320 g/ha): 0 (Herbicidal ratio of 5% or lower (almost no effect)); M: Abutilon theophrasti, herbicidal effect grade ([13]; 320 g/ha): 0 (Herbicidal ratio of 5% or lower (almost no effect))
